In patent publication US11976043B1, “3-cyano-2-ethoxy-9-(2-nitrobenzylidene)-4-(2-nitrophenyl)-6,7,8,9-tetrahydro-5H-cyclohepta[b]pyridine as an antimicrobial compound” (KING FAISAL UNIVERSITY, priority 2023, dated 2024):

Experiments:
Details in all cases: after 10, 20, 40 and 60 min at all dilutions 1:100, 1:200, 1:400, 1:800
Ps. aeruginosa = test: Antimicrobial testing by agar dilution, Ps. aeruginosa; assay type: cell-based, Pseudomonas aeruginosa
Description: (§1) The antimicrobial properties of the 3-cyano-2-ethoxy-9-(2-nitrobenzylidene)-4-(2-nitrophenyl)-6,7,8,9-tetrahydro-5H-cyclohepta[b]pyridine was studied by the method of agar dilution. Test solutions of each compound was prepared in concentration of 1% using dimethylformamide as a solvent then they are diluted in physiological solution to obtain the final experimental dilutions 1:100, 1:200, 1:400, 1:800. The effect of these substances are compared with furacillin in a controlable study. The testing microbes used were gram positive bacteria St. Aereus, gram negative bacteria E. coli, Ps. aeruginosa and Candida albicans fungi were taken.
(§2) The experiments used for this survey were meat-pentonlu agar (EPA) for cultivation of bacteria and Saburo environment for fungi. Each experiment used 1 ml of test solution on each plate 500 min. Add 2 drops of emulsified with microbes feel. All experimental samples were taken from the agar after 10, 20, 40, 60 minutes in the environment on the basis of Patrk planted. Bacteria were cultivated at a temperature of 37° C. for 1 day and the mushroom was kept in a thermostat for […] at a temperature of 28° C. in the. Then results were checked.

St. Aereus = test: Antimicrobial testing by agar dilution, St. Aereus; assay type: cell-based, Staphylococcus aureus
Description: as §1, §2

E. coli = test: Antimicrobial testing by agar dilution, E. coli; assay type: cell-based, Escherichia coli
Description: as §1, §2

Candida albicans = test: Antimicrobial testing by agar dilution, Candida albicans; assay type: cell-based
Description: as §1, §2

Measured: inhibition activity (in words)

CCOc1nc2c(c(-c3ccccc3[N+](=O)[O-])c1C#N)CCCCC2=Cc1ccccc1[N+](=O)[O-] [3-cyano-2-ethoxy-9-(2-nitrobenzylidene)-4-(2-nitrophenyl)-6,7,8,9-tetrahydro-5H-cyclohepta[b]pyridine]
most higher inhibition activity: all assays above
